The source of these data is patent US11608341B2, “Substituted tetrahydropyrazolo[3,4-d]pyrimidines and tetrahydropyrazolo[4,3-d]pyrimidines as C5A receptor modulators” (Idorsia Pharmaceuticals Ltd., priority 2018, dated 2023).

For this assay, the target named is T1, C5AR1 (Homo sapiens, UniProt P21730).
T1 construct: host or cells: CHO-K1
T1 sequence (P21730 1-350): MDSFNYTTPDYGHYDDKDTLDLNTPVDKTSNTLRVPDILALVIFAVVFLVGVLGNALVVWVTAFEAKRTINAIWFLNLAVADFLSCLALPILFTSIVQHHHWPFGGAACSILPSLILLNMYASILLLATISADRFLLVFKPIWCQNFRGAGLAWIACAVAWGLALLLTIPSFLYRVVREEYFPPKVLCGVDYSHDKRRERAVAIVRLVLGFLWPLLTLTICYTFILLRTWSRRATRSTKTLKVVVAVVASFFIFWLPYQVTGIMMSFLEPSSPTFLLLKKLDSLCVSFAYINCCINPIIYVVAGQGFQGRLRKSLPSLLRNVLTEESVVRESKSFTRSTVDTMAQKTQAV
In words: In vitro assay: antagonism of C5a-induced beta-arrestin recruitment (PathHunter) in CHO-K1 C5AR1 beta-arrestin cell line. The assay is classed as cell-based. As to conditions: antagonistic activity, 1-10 nM C5a agonist, geometric mean where several measurements, read-out: C5aR IC50. The procedure, abridged: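 Antagonist or DMSO added first, then C5a (1-10 nM, added at 6-fold end concentration), 1.5 h at 37 °C. PathHunter detection reagent was added for 45 min at RT before plate reading. IC50s come from antagonist serial dilutions in nmol/l and are geometric means of several measurements.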
By IC50 is commonly meant the midpoint of a concentration-inhibition curve. Take `Cc1cccc(F)c1N1CCC(N2Cc3cn(CC4(C)COC4)nc3N(Cc3ccccc3C(F)(F)F)C2=O)CC1` [Example 166]: the IC50 was found to be 12 nM.

Turning to `Cc1cccc(F)c1N1CCC(N2Cc3nn(C4CC4)cc3N(Cc3ncccc3C(F)(F)F)C2=O)CC1` [Example 212], the IC50 is 10 nM.

Take `Cn1cc2c(n1)N(Cc1ccccc1C(F)(F)F)C(=O)N(C1CCN(c3c(F)cccc3C#N)CC1)C2` [Example 49]: the IC50 was 12 nM.

In the case of `CC1c2cn(C)nc2N(Cc2ccccc2C(F)(F)F)C(=O)N1C1CCN(c2c(F)cccc2C(F)F)CC1` (single isomer, unassigned) [Example 314], the IC50 was found to be 8 nM.

Turning to `Cc1cccc(F)c1N1CCC(N2Cc3cn(C(C)(C)CO)nc3N(Cc3ccccc3C(F)(F)F)C2=O)CC1` [Example 32], the IC50 is 14 nM.

Consider `CC1c2cn(C3CC3)nc2N(Cc2ccccc2C(F)(F)F)C(=O)N1C1CCN(c2c(F)cccc2Br)CC1` (single isomer, unassigned) [Example 360], for which the IC50 came to 3 nM.

Take `CCOC(Cn1cc2c(n1)N(Cc1ccccc1C(F)(F)F)C(=O)N(C1CCN(c3c(C)cccc3F)CC1)C2)OCC` [Example 28]: the IC50 stood at 83 nM.

As to `Cn1cc2c(n1)N(Cc1ccccc1C(F)(F)F)C(=O)N(C1CCN(c3c(F)cccc3F)CC1)C2` [Example 273], the IC50 amounted to 13 nM.

Take `Cc1cccc(F)c1N1CCC(N2C(=O)N(Cc3ccccc3C(F)(F)F)c3nn(CC(C)(F)F)cc3C2C)CC1` (single isomer, unassigned) [Example 306]: the IC50 stood at 285 nM.

With `COc1nccc(C)c1N1CCC(N2Cc3c(cnn3COCC[Si](C)(C)C)N(Cc3ccccc3C(F)(F)F)C2=O)CC1` [Example 216], the half-inhibitory concentration (IC50) came out at 41 nM.

In the case of `Cc1cccc(F)c1N1CCC(N2Cc3nn(CC(C)(F)F)cc3N(Cc3ccccc3C(F)(F)F)C2=O)CC1` [Example 198], the IC50 is 13 nM.

Consider `Cc1cccc(F)c1N1CCC(N2C(=O)N(Cc3ccccc3C(F)(F)F)c3cn(C4CCCCO4)nc3C2C)CC1` (stereo not shown) [Example 294], for which the IC50 was 56 nM.

`Cc1cccc(F)c1N1CCC(N2Cc3cn(CC(C)(C)O)nc3N(Cc3ccccc3C(F)(F)F)C2=O)CC1` [Example 25]: the half-inhibitory concentration (IC50) worked out at 18 nM.

Turning to `COc1nccc(C)c1N1CCC(N2C(=O)N(Cc3ccccc3C3CC3)c3nn(C)cc3C2C)CC1` (single isomer, unassigned) [Example 369], the IC50 was 256 nM.

Turning to `Cc1cccc(F)c1N1CCC(N2Cc3cn(C[C@@H]4CC(F)(F)CN4C(=O)OC(C)(C)C)nc3N(Cc3ccccc3C(F)(F)F)C2=O)CC1` [Example 109], the IC50 was 27 nM.

For `COc1nccc(C)c1N1CCC(N2Cc3cn(C)nc3N(Cc3ccccc3C3CC3)C2=O)CC1` [Example 283], the IC50 was determined as 8 nM.

Turning to `Cc1cccc(F)c1N1CCC(N2Cc3cn(CC4(F)CC4)nc3N(Cc3ccccc3C(F)(F)F)C2=O)CC1` [Example 167], the IC50 was 10 nM.

For the molecule `Cc1cccc(F)c1N1CCC(N2Cc3cn(C(C)(NC(=O)OC(C)(C)C)C(F)(F)F)nc3N(Cc3ccccc3C(F)(F)F)C2=O)CC1` (stereo not shown) [Example 83], the IC50 is 75 nM.

As for `Cc1cccc(F)c1N1CCC(N2Cc3cn(C)nc3N(Cc3ccccc3C3CC3)C2=O)CC1` [Example 228], the IC50 came to 10 nM.

Consider `COC(=O)C(Cn1cc2c(n1)N(Cc1ccccc1C(F)(F)F)C(=O)N(C1CCN(c3c(C)cccc3F)CC1)C2)N(C)C` (stereo not shown) [Example 53], for which the IC50 came out at 46 nM.

`COc1nccc(C)c1N1CCC(N2Cc3cn(C4CC4)nc3N(Cc3ccccc3C(F)(F)F)C2=O)CC1` [Example 209]: the IC50 turned out to be 5 nM.

Take `COc1nccc(C)c1N1CCC(N2C(=O)N(Cc3ccccc3C(F)(F)F)c3nn(C)cc3C2C)CC1` (single isomer, unassigned) [Example 331]: the IC50 was determined as 6 nM.

On to `COc1nccc(C)c1N1CCC(N2Cc3nn(CC(C)(F)F)cc3N(Cc3ccccc3C(F)(F)F)C2=O)CC1` [Example 219], for which the half-maximal inhibitory concentration (IC50) came to 38 nM.

With `COc1nccc(C)c1N1CCC(N2C(=O)N(Cc3ccccc3C(F)(F)F)c3c[nH]nc3C2C)CC1` (single isomer, unassigned) [Example 295], the half-maximal inhibitory concentration (IC50) is 25 nM.

Regarding `Cc1cccc(F)c1N1CCC(N2C(=O)N(Cc3ncccc3C(F)(F)F)c3nn(C)cc3C2C)CC1` (single isomer, unassigned) [Example 354], the half-maximal inhibitory concentration (IC50) was found to be 5 nM.

Regarding `CNCCn1cc2c(n1)N(Cc1ccccc1C(F)(F)F)C(=O)N(C1CCN(c3c(C)cccc3F)CC1)C2` [Example 59], the IC50 was found to be 196 nM.

For `Cc1cccc(F)c1N1CCC(N2Cc3cn(C)nc3N(Cc3nc(N(C)C)ccc3C(F)(F)F)C2=O)CC1` [Example 50], the IC50 came out at 85 nM.

Take `Cc1cccc(F)c1N1CCC(N2Cc3cn(C)nc3N(Cc3ccccc3OC3COC3)C2=O)CC1` [Example 250]: the concentration for half-maximal inhibition (IC50) is 10 nM.

For `Cc1cccc(F)c1N1CCC(N2Cc3cn(C4CCNC4)nc3N(Cc3ccccc3C(F)(F)F)C2=O)CC1` (stereo not shown) [Example 94], the IC50 was 727 nM.

On to `Cc1cccc(F)c1N1CCC(N2Cc3c(ncn3C)N(Cc3ccccc3C(F)(F)F)C2=O)CC1` [Example 16], for which the IC50 was determined as 74 nM.

For `Cc1cccc(F)c1N1CCC(N2Cc3cn(C(=O)OCC(C)C)nc3N(Cc3ccccc3C(F)(F)F)C2=O)CC1` [Example 148], the IC50 was 341 nM.

As for `Cc1cccc(F)c1N1CCC(N2Cc3cn(C(C)C(F)F)nc3N(Cc3ccccc3C(F)(F)F)C2=O)CC1` (single isomer, unassigned) [Example 188], the IC50 amounted to 10 nM.

`Cn1cc2c(n1)N(Cc1ccccc1C(F)(F)F)C(=O)N(C1CCN(c3c(F)cccc3Cl)CC1)C2` [Example 272]: the IC50 came out at 18 nM.

Consider `COc1cccc(C)c1N1CCC(N2Cc3cn(C)nc3N(Cc3ccccc3C(F)(F)F)C2=O)CC1` [Example 48], for which the half-inhibitory concentration (IC50) worked out at 18 nM.
